The values that follow come from PMC11491487 (Nature Communications, 2024).

Where “and” joins values, the source holds several entries; their conditions need not be identical. Equal entries are not always repeated.

Assay [1] concerns Drosophila melanogaster RyR G4915E. The experiment in a line: Bioassay of gene-edited Drosophila melanogaster (feeding, mortality after 24 h). The assay is classed as in vivo. The conditions noted are these: 24 h.
Assay [2] has as its system Drosophila melanogaster RyR M4758I. The description is as above. Format: in vivo. The settings on record: 24 h.

On to `Cc1cc(C(F)(C(F)(F)F)C(F)(F)F)ccc1NC(=O)c1cccc(I)c1C(=O)NC(C)(C)CS(C)(=O)=O` [FLU, flubendiamide], for which the death rate in assay [1] (FLU 1.000 uM), in assay [1] (FLU 3.333 uM), in assay [1] (FLU 10.000 uM), in assay [1] (FLU 33.333 uM), in assay [1] (FLU 100.000 uM) and in assay [1] (FLU 333.333 uM) was 0% in each case. Besides, the death rate in assay [2] (FLU 0.033 uM) is 0%; in assay [2] (FLU 0.100 uM), 0% and 10%; in assay [2] (FLU 0.333 uM) it was 10%; in assay [2] (FLU 1.000 uM), 10% and 20%; in assay [2] (FLU 3.333 uM) it was 20% and 30%; in assay [2] (FLU 10.000 uM), 50%. In addition, the death rate in assay [2] (FLU 33.333 uM) is 60% and 70%; in assay [2] (FLU 100.000 uM) it was 100%; in assay [2] (FLU 333.333 uM), 100%.
